Results published in patent US6387947B1, “Antimicrobial cosmetic compositions” (E-L Management Corp., priority 1997, dated 2002).
Entries after “also recorded” stand apart in the source; their conditions may differ.

Legend:
[1] = antiirritant effect against Balsam of Peru on ventral forearms of volunteers; format: in vivo, human; settings: 0.1% in hydroalcohol 1:1, applied twenty minutes before Balsam of Peru; Minolta Chromameter; seven volunteers
Experimental: Seven volunteers with a history of skin sensitivity to Balsam of Peru are chosen for the study.
The test compounds are applied to the ventral forearms of panelists. The material is allowed to absorb for twenty minutes and then Balsam of Peru, an irritant is applied on the test sites. Skin irritation is measured in terms of increase in skin redness. The degree of redness is measured with a Minolta Chromameter and compared with the controls, the positive control being skin treated with Balsam of Peru alone, and the negative control being a skin site treated with 10% cola solution(a known antiirritant), and challenged like the test products.

[2] = tested on: Yeast; assay: microbial challenge of nonionic oil-in-water emulsion, pool 4; format: cell-based; settings: for concentration of microbes: 0.473% in emulsion
Experimental: (§1) A nonionic oil-in-water emulsion is prepared containing 0.473% 3-furan carboxylic acid. The formulation is divided into five portions, each one getting an inoculation at day 0, and a reinoculation after three weeks, of one of the following microbial cultures: (1)Enterics; (2) Pseudomonas; (3)Staphylococcus; (4)Yeast; and (5)Mold. The concentration of microbes in each individual formulation is calculated on the day of the inoculation, and then again calculated on day 2, and at the end of one, two, three (pre-reinoculation) and four weeks, at a variety of pH values. These are also compared with formulations containing 2-furan carboxylic acid and an identical series of microbes, and an acid pH control emulsion without a furan carboxylic acid added. All numbers, other than those listed as “<10”, are log base 10; thus, for example, “6.6” is equivalent to the presence of […] bacteria. Entries of <10 indicate less than 10 colony forming units, the lowest level of detection.

[3] = tested on: Pseudomonas; assay: microbial challenge of nonionic oil-in-water emulsion, pool 2; format: cell-based; settings: for concentration of microbes: 0.473% in emulsion
Experimental: as §1

[4] = tested on: lymphocyte adhesion to endothelial cells; assay: inhibition of lymphocyte adhesion to endothelial cells; format: cell-based, human
Experimental: Endothelial cells are grown to confluence and washed thoroughly with basal media prior to the experiment to remove all fetal calf serum. The test compounds are then added to the endothelial culture well and incubated for 2 hours. IL-1β is added to stimulated expression of adhesion molecules on the endothelial cells before lymphocytes are added. Lymphocytes are isolated from blood collected from adult human subjects and added to the endothelial culture wells. PHA is added to stimulate adhesion molecule expression in the lymphocytes and the cultures incubated overnight. After a brief washing procedure, cells are incubated with Rose Bengal, and the number of adherent cells assessed by measuring the absorbance at 570 nm.

[5] = tested on: Pseudomonas; assay: microbial challenge of nonionic oil-in-water emulsion, pool 2; format: cell-based; settings: 0.473% in emulsion
[6] = tested on: PLA2 enzyme obtained from snake venom; settings: assay concentrations 0.01, 0.1 and 1 mg/ml
Experimental: The enzyme reaction is accomplished in a cuvette containing […] of phosphate buffered saline. Fluorometric substrate NBD-C6-HPC is solubilized 1 mM in EtOH, and is diluted in the reaction mixture to yield a 10 μM final concentration. The assay is initiated with the addition of 0.001 units per μl of PLA2 enzyme obtained from snake venom. Enzyme activity is monitored either with or without the presence of potential inhibitors. […] Prior to enzyme addition, samples are measured fluorometrically at excitation 470 and emission 570 to determine background level of fluorescensce. Following enzyme addition, samples are monitored every 15 minutes over a 60 minute period.

[7] = tested on: Enterics; assay: microbial challenge of nonionic oil-in-water emulsion, pool 1; format: cell-based; settings: for concentration of microbes: 0.473% in emulsion
Experimental: as §1

[8] = tested on: Enterics; assay: as above; format: cell-based; settings: 0.473% in emulsion
[9] = tested on: Staphylococcus; assay: microbial challenge of nonionic oil-in-water emulsion, pool 3; format: cell-based; settings: for concentration of microbes: 0.473% in emulsion
Experimental: The formulation is divided into five portions, each one getting an inoculation at day 0, and a reinoculation after three weeks, of one of the following microbial cultures: (1)Enterics; (2) Pseudomonas; (3)Staphylococcus; (4)Yeast; and (5)Mold. The concentration of microbes in each individual formulation is calculated on the day of the inoculation, and then again calculated on day 2, and at the end of one, two, three (pre-reinoculation) and four weeks, at a variety of pH values. These are also compared with formulations containing 2-furan carboxylic acid and an identical series of microbes, and an acid pH control emulsion without a furan carboxylic acid added. All numbers, other than those listed as “<10”, are log base 10; thus, for example, “6.6” is equivalent to the presence of […] bacteria. Entries of <10 indicate less than 10 colony forming units, the lowest level of detection.

[10] = tested on: Mold; assay: microbial challenge of nonionic oil-in-water emulsion, pool 5; format: cell-based; settings: for concentration of microbes: 0.473% in emulsion
Experimental: as §1

**Q.** Which results are given for `O=C(O)c1ccoc1` [3-furan carboxylic acid]?
**A.** effectiveness in preventing the onset of irritation (reduction of skin redness) [1]: 48%; antimicrobial activity against yeast, in words [2]: substantially reducing the growth; also recorded: superior to 2-furan carboxylic acid; concentration of microbes ([2]; pH 3.0, Day 0): 5.7 log base 10; concentration of microbes ([2]; pH 3.0, Day 2): <10 colony forming units; concentration of microbes ([2]; pH 3.0, Week 1): <10 colony forming units; concentration of microbes ([2]; pH 3.0, Week 2): <10 colony forming units; concentration of microbes ([2]; pH 3.0, Week 3): <10 colony forming units; concentration of microbes ([2]; pH 3.0, Week 4): <10 colony forming units; concentration of microbes ([2]; pH 4.0, Day 0): 5.7 log base 10; concentration of microbes ([2]; pH 4.0, Day 2): 2.5 log base 10; concentration of microbes ([2]; pH 4.0, Week 1): <10 colony forming units; concentration of microbes ([2]; pH 4.0, Week 2): <10 colony forming units; concentration of microbes ([2]; pH 4.0, Week 3): <10 colony forming units; concentration of microbes ([2]; pH 4.0, Week 4): <10 colony forming units; concentration of microbes ([2]; pH 5.0, Day 0): 5.7 log base 10; concentration of microbes ([2]; pH 5.0, Day 2): 2.5 log base 10; concentration of microbes ([2]; pH 5.0, Week 1): 2.7 log base 10; concentration of microbes ([2]; pH 5.0, Week 2): 1.7 log base 10; concentration of microbes ([2]; pH 5.0, Week 3): 2.0 log base 10; concentration of microbes ([2]; pH 5.0, Week 4): 1.8 log base 10; antimicrobial activity against Pseudomonas, in words [3]: capable of preventing growth; concentration of microbes ([3]; pH 3.0, Week 3): <10 colony forming units; concentration of microbes ([3]; pH 4.0, Week 1): <10 colony forming units; concentration of microbes ([3]; pH 4.0, Week 2): <10 colony forming units; concentration of microbes ([3]; pH 4.0, Week 3): <10 colony forming units; concentration of microbes ([3]; pH 5.0, Week 1): <10 colony forming units; concentration of microbes ([3]; pH 5.0, Week 2): <10 colony forming units; concentration of microbes ([3]; pH 5.0, Week 4): <10 colony forming units; inhibition of adhesion of polymorphonuclear leukocytes (PMNs) to activated endothelial cells, in words [4]: ability to inhibit the adhesion; inhibition of lymphocyte adhesion, in words (absorbance at 570 nm, Rose Bengal) ([4]; concentrations of 0.5% and 1%, IL-1β and PHA stimulated): very potent inhibitors of lymphocyte adhesion; concentration of microbes ([5]; pH 3.0, Day 2): <10 colony forming units; concentration of microbes ([5]; pH 3.0, Week 1): <10 colony forming units; concentration of microbes ([5]; pH 3.0, Week 2): <10 colony forming units; concentration of microbes ([5]; pH 3.0, Week 4): <10 colony forming units; concentration of microbes ([5]; pH 4.0, Day 2): <10 colony forming units; concentration of microbes ([5]; pH 4.0, Week 4): <10 colony forming units; concentration of microbes ([5]; pH 5.0, Day 2): <10 colony forming units; concentration of microbes ([5]; pH 5.0, Week 3): <10 colony forming units; PLA2 inhibition, in words [6]: exceptionally active; antimicrobial activity against Enterics, in words [7]: capable of preventing growth; concentration of microbes ([7]; pH 3.0, Week 1): <10 colony forming units; concentration of microbes ([7]; pH 3.0, Week 2): <10 colony forming units; concentration of microbes ([7]; pH 3.0, Week 3): <10 colony forming units; concentration of microbes ([7]; pH 4.0, Day 0): 6.6 log base 10; concentration of microbes ([7]; pH 4.0, Week 1): <10 colony forming units; concentration of microbes ([7]; pH 4.0, Week 2): <10 colony forming units; concentration of microbes ([7]; pH 5.0, Week 1): <10 colony forming units; concentration of microbes ([7]; pH 5.0, Week 3): <10 colony forming units; concentration of microbes ([8]; pH 3.0, Day 0): 6.6 log base 10; concentration of microbes ([8]; pH 3.0, Day 2): <10 colony forming units; concentration of microbes ([8]; pH 3.0, Week 4): <10 colony forming units; concentration of microbes ([8]; pH 4.0, Day 2): <10 colony forming units; concentration of microbes ([8]; pH 4.0, Week 3): <10 colony forming units; concentration of microbes ([8]; pH 4.0, Week 4): <10 colony forming units; concentration of microbes ([8]; pH 5.0, Day 0): 6.6 log base 10; concentration of microbes ([8]; pH 5.0, Day 2): <10 colony forming units; concentration of microbes ([8]; pH 5.0, Week 2): <10 colony forming units; concentration of microbes ([8]; pH 5.0, Week 4): <10 colony forming units; antimicrobial activity against Staphylococcus, in words [9]: capable of preventing growth; concentration of microbes ([9]; pH 3.0, Day 0): 6.3 log base 10; concentration of microbes ([9]; pH 3.0, Day 2): <10 colony forming units; concentration of microbes ([9]; pH 3.0, Week 1): <10 colony forming units; concentration of microbes ([9]; pH 3.0, Week 2): <10 colony forming units; concentration of microbes ([9]; pH 3.0, Week 3): <10 colony forming units; concentration of microbes ([9]; pH 3.0, Week 4): <10 colony forming units; concentration of microbes ([9]; pH 4.0, Day 0): 6.3 log base 10; concentration of microbes ([9]; pH 4.0, Day 2): <10 colony forming units; concentration of microbes ([9]; pH 4.0, Week 1): <10 colony forming units; concentration of microbes ([9]; pH 4.0, Week 2): <10 colony forming units; concentration of microbes ([9]; pH 4.0, Week 3): <10 colony forming units; concentration of microbes ([9]; pH 4.0, Week 4): <10 colony forming units; concentration of microbes ([9]; pH 5.0, Day 0): 6.3 log base 10; concentration of microbes ([9]; pH 5.0, Day 2): <10 colony forming units; concentration of microbes ([9]; pH 5.0, Week 1): <10 colony forming units; concentration of microbes ([9]; pH 5.0, Week 2): <10 colony forming units; concentration of microbes ([9]; pH 5.0, Week 3): <10 colony forming units; concentration of microbes ([9]; pH 5.0, Week 4): <10 colony forming units; antimicrobial activity against Mold, in words [10]: capable of preventing growth; also recorded: superior to 2-furan carboxylic acid; concentration of microbes ([10]; pH 3.0, Day 0): 5.2 log base 10; concentration of microbes ([10]; pH 3.0, Day 2): <10 colony forming units; concentration of microbes ([10]; pH 3.0, Week 1): <10 colony forming units; concentration of microbes ([10]; pH 3.0, Week 2): <10 colony forming units; concentration of microbes ([10]; pH 3.0, Week 3): <10 colony forming units; concentration of microbes ([10]; pH 3.0, Week 4): <10 colony forming units; concentration of microbes ([10]; pH 4.0, Day 0): 5.2 log base 10; concentration of microbes ([10]; pH 4.0, Day 2): <10 colony forming units; concentration of microbes ([10]; pH 4.0, Week 1): <10 colony forming units; concentration of microbes ([10]; pH 4.0, Week 2): <10 colony forming units; concentration of microbes ([10]; pH 4.0, Week 3): <10 colony forming units; concentration of microbes ([10]; pH 4.0, Week 4): <10 colony forming units; concentration of microbes ([10]; pH 5.0, Day 0): 5.2 log base 10; concentration of microbes ([10]; pH 5.0, Day 2): <10 colony forming units; concentration of microbes ([10]; pH 5.0, Week 1): <10 colony forming units; concentration of microbes ([10]; pH 5.0, Week 2): <10 colony forming units; concentration of microbes ([10]; pH 5.0, Week 3): <10 colony forming units; concentration of microbes ([10]; pH 5.0, Week 4): <10 colony forming units

**Q.** With `COc1cc(/C=C/C(=O)O)ccc1O` [Ferulic acid, ferulic acid] as the compound, how does the “effectiveness in preventing the onset of irritation (reduction of skin redness)” value [1] read?
**A.** 72%
